In patent publication US20240252520A1 (priority 2023, published 2024):
“Also recorded” adds a separate entry of the source.

How the values were obtained:
db/db mouse model [1] = assay: Receptor agonists and antagonists on db/db mouse wounds, day 5 sacrifice; details: 2 mg/kg topically daily with blk-gel; Chrm1, Chrm3 or α7nAChR agonist
fibroblasts [2] = assay: Alamar Blue assay of fibroblast metabolic activity; format: cell-based, human; details: over three days after treatment
Description: (§1) This concentration was selected for all subsequent experiments (FIG. 24A).
Following the in silico prioritization of metrifonate as a key compound in promoting wound healing, we determined if addition of metrifonate influenced key cell functions in tissue cultures of cells that are implicated in wound healing, such as fibroblasts, keratinocytes and macrophages.
In a further example, an alamarBlue™ Assay can be used as follows: Human dermal fibroblasts (immortalized cell line, abm Cat. No. T0904) are cultured in complete medium (PriGrow III with 10% Fetal Bovine Serum, 100U/L penicillin, and 100 ug/L streptomycin) at 37° C. in 5% CO2. The cells are passaged every 7 days using 0.025% trypsin-ethylenediaminetetraacetic acid (Life Technologies) and plated at 10,000 cells per well in 96-well plates. […] Cell viability is determined by alarmarBlue™ (Invitrogen) after 48h, and 72h of incubation. Briefly, after 48 or 72h of incubation the media containing inhibitors is removed and replaced with 10% v/v alamarBlue™ in complete media and the plate is incubated at 37° C. for further 24 h. After this incubation period, plates are read at an excitation range of 540-570 nm and an emission range of 580-610 nm. All AchE inhibitors are expected to not negatively affect cell proliferation up to the concentration of 10 μg/ml.

keratinocytes [3] = assay: Wound healing scratch assay of keratinocytes with metrifonate; format: cell-based; details: 10 μg/ml, after 24 hours
Experimental: as §1
Keratinocyte HaCaT cells (ATCC) are cultured in complete medium (Dulbecco's Modified Eagle Medium with 10% Fetal Bovine Serum, 100U/L penicillin, and 100 ug/L streptomycin) at 37° C. in 5% CO2. The cells are passaged every 5 days using 0.025% trypsin-ethylenediaminetetraacetic acid (Life Technologies) detachment and plated at 100,000 cells per well in 24-well plates. The cell monolayer is scratched in a straight line using a P200 pipette tip. […] Images are taken immediately after the scratch (0 h), in 6 h, 12 h, 24 h, 48 h, and 72 h for at least four wells per condition. Scratch areas are analyzed using ImageJ/FIJI. At least three independent experiments are performed. All AchE inhibitors are expected to promote faster wound coverage up to the concentration of 10 μg/ml.

[4] = system: THP-1 derived macrophages; assay: Cytokine gene expression in THP-1 derived macrophages polarized to M0, M1, M2; format: cell-based, human
Description: as §1

db/db mouse model [5] = assay: LD-Met gel in db/db mice, Day 5 and Day 10 wound analyses; format: in vivo; details: Day 5
[6] = biological target: T1, Acetylcholinesterase (AchE) (Mus musculus, UniProt P21836); assay: AchE activity in Day 5 mouse wound lysates; format: in vivo; details: Day 5, 2 days after bandage removal
T1 construct: measuring the levels of the enzyme on Day 5 in mouse wounds lysates; from tissue; host or cells: skin wound tissue lysate of db/db mice, Day 5 after wounding
T1 sequence (P21836 32-614): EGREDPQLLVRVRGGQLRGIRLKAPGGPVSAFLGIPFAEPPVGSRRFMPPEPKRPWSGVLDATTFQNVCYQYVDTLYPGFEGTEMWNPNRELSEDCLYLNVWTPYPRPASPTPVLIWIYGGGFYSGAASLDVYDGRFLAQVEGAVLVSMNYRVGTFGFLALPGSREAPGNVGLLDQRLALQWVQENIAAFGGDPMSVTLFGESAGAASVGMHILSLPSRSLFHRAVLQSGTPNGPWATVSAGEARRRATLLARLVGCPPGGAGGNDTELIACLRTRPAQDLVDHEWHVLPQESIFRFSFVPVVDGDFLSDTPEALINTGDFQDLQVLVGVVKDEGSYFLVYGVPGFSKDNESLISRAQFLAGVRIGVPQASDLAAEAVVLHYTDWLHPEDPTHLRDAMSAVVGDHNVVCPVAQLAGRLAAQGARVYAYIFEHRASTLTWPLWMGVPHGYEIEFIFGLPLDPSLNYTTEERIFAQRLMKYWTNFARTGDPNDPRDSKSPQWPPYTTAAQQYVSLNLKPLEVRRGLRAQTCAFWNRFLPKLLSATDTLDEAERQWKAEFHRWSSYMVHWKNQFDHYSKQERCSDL

diabetic humanized mice = assay: Metrifonate hydrogel on diabetic humanized mice wounds; format: in vivo, mouse
Description: These genes are well known to improve impaired diabetic wound healing, see Berry-Kilgour et al., Advancements in the Delivery of Growth Factors and Cytokines for the Treatment of Cutaneous Wound Indications; Adv Wound Care (New Rochelle) 2021; 10(11):596-622. Epub 20201125. doi:10/1089?wound.2020.1183. PubMed PMID:33086946: PMCID: PMC8392095.
To generate a humanized skin graft mice model, Foxn1nu nude male mice of 6 weeks old can be used as the recipient animals. These mice are devoid of T cells and suffer from a lack of cell-mediated immunity making them a model of choice for xenograft studies. […] Following the sustained diabetic state period, wounds are inflicted on the transplanted human skin with a 3 mm punch biopsy, treatment options include the best two Metrifonate-Hydrogel dressings, previously determined by the mice and pig studies for the preferred two doses. […] Wound healing can be monitored using standardized photography daily during the course of 3, 5 and 10 days. […]
To generate a humanized skin graft mice model, Foxn1nu nude male mice of 6 weeks old can be used as the recipient animals. […] Following the sustained diabetic state period, wounds are inflicted on the transplanted human skin with a 3 mm punch biopsy, treatment options include the best two Metrifonate-Hydrogel dressings, previously determined by the mice and pig studies for the preferred two doses. […]

[7] = oral 30-60 mg daily up to 26 weeks; cited from earlier work
fibroblasts [8] = assay: Nicotinic and muscarinic receptor gene expression, fibroblasts; details: 48 hours
keratinocytes [9] = assay: Nicotinic and muscarinic receptor gene expression, keratinocytes; details: 48 hours
acute porcine wounds = assay: Metrifonate eluting dressings on acute porcine wounds over 20 days
[10] = system: THP-1 monocyte derived macrophages; assay: Nicotinic and muscarinic receptor gene expression, THP-1 monocyte derived macrophages; details: 48 hours
diabetic db/db mice = assay: LNP-FGF2, LNP-IL-2, LNP-CHI3L1, LNP-IL-17A mRNA bandages in db/db mice (Example 15); format: in vivo, mouse
Experimental: Two 6-mm punch biopsy full-thickness wounds were created on the dorsum of 16-week-old diabetic db/db mice (FIG. 19A). Macroporous bandages loaded with 4 μg of LNP-FGF2, LNP-IL-2, LNP-CHI3L1, and LNP-IL-17A mRNA were topically applied on the wounds for 10 days. […] The wound size was measured every three days.

C[N+](C)(C)CC#CCOC(=O)Nc1cccc(Cl)c1.[Cl-] [McN-A 343]
effect of agonist on wound healing (db/db mouse model [1]): promoted the wound healing; also recorded: accelerated wound healing

O=C(N[C@H]1CN2CCC1CC2)c1ccc(Cl)cc1 [PNU-282987]
effect of agonist on wound healing (db/db mouse model [1]): only the M1 agonist accelerated wound healing

COP(=O)(OC)C(O)C(Cl)(Cl)Cl (stereo not shown) [metrifonate, (2,2,2-trichloro-1-hydroxyethyl) dimethylphosphonate]
metrifonate concentration that began to negatively affect viability (fibroblasts [2]): over 10 μg/ml | keratinocyte migration / scratch wound closure (keratinocytes [3]): significantly accelerate migration | increase in IL10 gene expression ([4]; M0 macrophages): 30 fold | downregulation of IL1b ([4]; M1 cells): 12 fold | downregulation of TNF ([4]; M1 cells): 40 fold | increase in IL10 gene expression ([4]; M2 macrophages): 10 fold | total and degranulated mast cells (toluidine blue staining) (db/db mouse model [5]): enrichment of both total and degranulated mast cells | Acetylcholinesterase (AchE) activity in wounds [6]: inhibits the activity of Acetylcholinesterase (AchE) | wound healing (diabetic humanized mice; low dose hydrogel vs blank hydrogel, D0 to D7): improved wound healing | expression of Il10, Arg and human gene VEGFA (RT-qPCR) (diabetic humanized mice; upon sacrifice): increased the expression | clinical effect in mild-to-moderate Alzheimer's disease [7]: beneficial effect | receptor gene expression (fibroblasts [8]): activation of CHRNA4; also recorded: increased expression of CHRNA4 | receptor gene expression (keratinocytes [9]): up-regulation of CHRM3 and CHRNB4 receptors | adverse effects (acute porcine wounds): did not induce any adverse effects | wound lengths in histological assessment (acute porcine wounds): shorter wound lengths | receptor gene expression ([10]; M0 cells): activation of CHRM3 receptor; also recorded: up-regulation of CHRM3 receptor | receptor gene expression ([10]; M1 cells): activation of CHRM4; also recorded: higher expression of CHRM4 and CHRNA3 receptors

CHI3L1 protein: bandages loaded with CHI3L1 protein employed as additional control
wound healing during the whole period vs blank bandage (repeated measurement analysis) (diabetic db/db mice; 4 μg bandage, D0 to D10): no differences in wound healing | wound reduction on Day 10 (diabetic db/db mice; Day 10, compared with blank): similar

LASSBIo0897
effect of agonist on wound healing (db/db mouse model [1]): only the M1 agonist accelerated wound healing
